Reference: ChEMBL document CHEMBL1201862, “PubChem BioAssay data set” (2004)
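Interpolation was linear, between the two tested concentrations surrounding the appropriate level; five concentrations were tested over 48 hours in 96-well plates. GI50 is the concentration that inhibits growth by half.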 Calls of active or inactive are those of the source. Rule as the data show it: active = GI50 up to about 1.1 µM and inactive = higher.

Columns and labels:
Assay in all cases: inhibition of tumour cell growth, NCI panel, 48 h
[1] = tested on: 786-0
[2] = tested on: BT-549
[3] = tested on: CCRF-CEM
[4] = tested on: EKVX
[5] = tested on: HCT-116
[6] = tested on: HOP-92
[7] = tested on: IGROV-1
[8] = tested on: M14
[9] = tested on: MCF7
[10] = tested on: MDA-MB-435
[11] = tested on: NCI-H522
[12] = tested on: OVCAR-3
[13] = tested on: SF-295
[14] = tested on: SK-MEL-2
[15] = tested on: SK-MEL-5
[16] = tested on: SN12C
[17] = tested on: SNB-75
[18] = tested on: SW-620
[19] = tested on: TK-10
[20] = tested on: DMS-273

| SMILES | GI50 [1] | GI50 [2] | GI50 [3] | GI50 [4] | GI50 [5] | GI50 [6] | GI50 [7] | GI50 [8] | GI50 [9] | GI50 [10] | GI50 [11] | GI50 [12] | GI50 [13] | GI50 [14] | GI50 [15] | GI50 [16] | GI50 [17] | GI50 [18] | GI50 [19] | GI50 [20] |
| --- | --- | --- | --- | --- | --- | --- | --- | --- | --- | --- | --- | --- | --- | --- | --- | --- | --- | --- | --- | --- |
| CC(=O)C(C(c1ccccc1)N1CCOCC1)N1CCOCC1 (configuration not stated) | > 100 µM (inactive) | > 100 µM (inactive) | 16.9 µM (inactive) | > 100 µM (inactive) | > 100 µM (inactive) | > 100 µM (inactive) | > 100 µM (inactive) | > 100 µM (inactive) | > 100 µM (inactive) | > 100 µM (inactive) | > 100 µM (inactive) | > 100 µM (inactive) | > 100 µM (inactive) | > 100 µM (inactive) | > 100 µM (inactive) | > 100 µM (inactive) | > 100 µM (inactive) | > 100 µM (inactive) | 22.6 µM (inactive) | – |
| NC(=O)N/N=C(\CC1OC(=O)c2ccccc21)c1ccc([N+](=O)[O-])cc1 (configuration not stated) | 17.6 µM (inactive) | – | 31.3 µM (inactive) | 33.8 µM (inactive) | 28.7 µM (inactive) | – | 23.7 µM (inactive) | 34 µM (inactive) | – | – | – | 49.1 µM (inactive) | 68.4 µM (inactive) | 19.4 µM (inactive) | 23.1 µM (inactive) | 31 µM (inactive) | 27.1 µM (inactive) | 35.7 µM (inactive) | > 100 µM (inactive) | 28.1 µM (inactive) |
| C=C1CC[C@H](O)C(C)(C)[C@@H]1CC/C(C)=C/CC/C=C(\C)CC/C=C(\C)CCC=C(C)C | > 100 µM (inactive) | > 100 µM (inactive) | 1.82 µM (inactive) | 97.9 µM (inactive) | 43.7 µM (inactive) | > 100 µM (inactive) | > 100 µM (inactive) | > 100 µM (inactive) | 27.6 µM (inactive) | > 100 µM (inactive) | 29 µM (inactive) | > 100 µM (inactive) | > 100 µM (inactive) | 46.7 µM (inactive) | 54 µM (inactive) | 66.2 µM (inactive) | > 100 µM (inactive) | > 100 µM (inactive) | > 100 µM (inactive) | – |
| Cc1cc(C)c(NC(=S)NC(=O)c2ccccc2)cc1C | > 100 µM (inactive) | > 100 µM (inactive) | > 100 µM (inactive) | > 100 µM (inactive) | > 100 µM (inactive) | > 100 µM (inactive) | > 100 µM (inactive) | > 100 µM (inactive) | 38.2 µM (inactive) | 52.8 µM (inactive) | > 100 µM (inactive) | > 100 µM (inactive) | 34.4 µM (inactive) | > 100 µM (inactive) | 25.2 µM (inactive) | > 100 µM (inactive) | > 100 µM (inactive) | > 100 µM (inactive) | > 100 µM (inactive) | – |
| Fc1c(F)c(C(F)(F)F)c(F)c(F)c1N/N=C/c1cn(Cc2ccccc2)c2ccccc12 | 23.2 µM (inactive) | 30.2 µM (inactive) | 20.1 µM (inactive) | 18.4 µM (inactive) | 23.1 µM (inactive) | 24 µM (inactive) | 27.5 µM (inactive) | 18.2 µM (inactive) | 23.1 µM (inactive) | 22.1 µM (inactive) | 23.7 µM (inactive) | 13.2 µM (inactive) | 13.6 µM (inactive) | 25.6 µM (inactive) | 18.2 µM (inactive) | 29.2 µM (inactive) | 20 µM (inactive) | 30.9 µM (inactive) | 25.2 µM (inactive) | – |
| Cc1ccc2c(c1)C(=O)c1[nH]c3ccc(F)cc3c1CO2 | 12.1 µM (inactive) | 31.1 µM (inactive) | > 100 µM (inactive) | 67.6 µM (inactive) | 17.8 µM (inactive) | 81.8 µM (inactive) | 30.3 µM (inactive) | 18.8 µM (inactive) | > 100 µM (inactive) | 58.9 µM (inactive) | 36.6 µM (inactive) | 36.6 µM (inactive) | 11.4 µM (inactive) | 12.1 µM (inactive) | > 100 µM (inactive) | > 100 µM (inactive) | 10.3 µM (inactive) | 24.4 µM (inactive) | 31.8 µM (inactive) | – |
| C=C(C)[C@@H](O)[C@H](O)C[C@H](C)C1CC[C@]2(C)C1=CC[C@@H]1[C@@]3(C)CC[C@@H](OC(C)=O)C(C)(C)[C@@H]3C[C@@H](OC3OC(COC(C)=O)C(O)C(O)C3O)[C@]12C (some centres not stated) | 3.44 µM (inactive) | 3.33 µM (inactive) | 2.29 µM (inactive) | 3.03 µM (inactive) | 2.27 µM (inactive) | 2.37 µM (inactive) | 2.4 µM (inactive) | 2.72 µM (inactive) | 2.96 µM (inactive) | 2 µM (inactive) | 1.67 µM (inactive) | 2.17 µM (inactive) | 2.16 µM (inactive) | 1.77 µM (inactive) | 2.1 µM (inactive) | 3.21 µM (inactive) | 2.45 µM (inactive) | 3.34 µM (inactive) | 3.39 µM (inactive) | – |
| CN(N)C(=O)NCCCl | > 100 µM (inactive) | > 100 µM (inactive) | > 100 µM (inactive) | > 100 µM (inactive) | > 100 µM (inactive) | > 100 µM (inactive) | > 100 µM (inactive) | > 100 µM (inactive) | > 100 µM (inactive) | > 100 µM (inactive) | > 100 µM (inactive) | > 100 µM (inactive) | > 100 µM (inactive) | > 100 µM (inactive) | > 100 µM (inactive) | > 100 µM (inactive) | > 100 µM (inactive) | > 100 µM (inactive) | > 100 µM (inactive) | – |
| Cc1cc(=O)c2cc(/N=C/c3ccc([N+](=O)[O-])o3)ccc2o1 | 64.4 µM (inactive) | 72.6 µM (inactive) | 41.1 µM (inactive) | > 100 µM (inactive) | 32.5 µM (inactive) | > 100 µM (inactive) | > 100 µM (inactive) | > 100 µM (inactive) | 24.3 µM (inactive) | 44.9 µM (inactive) | 64.6 µM (inactive) | > 100 µM (inactive) | > 100 µM (inactive) | > 100 µM (inactive) | > 100 µM (inactive) | > 100 µM (inactive) | > 100 µM (inactive) | 63.5 µM (inactive) | > 100 µM (inactive) | – |
| Nc1ncc(Cl)c(NCC2(CO)CC(CCc3ccccc3)C2)n1 (configuration not stated) | > 100 µM (inactive) | > 100 µM (inactive) | > 67.8 µM (inactive) | > 24.9 µM (inactive) | 3.7 µM (inactive) | 5.69 µM (inactive) | > 100 µM (inactive) | > 100 µM (inactive) | 0.438 µM (active) | > 100 µM (inactive) | > 76.2 µM (inactive) | > 100 µM (inactive) | 5.2 µM (inactive) | > 100 µM (inactive) | 0.38 µM (active) | > 100 µM (inactive) | 46.2 µM (inactive) | > 100 µM (inactive) | 14.4 µM (inactive) | – |
| O=c1c2cc(S(=O)(=O)O)ccc2nc(COc2ccc(Oc3ccc(Cl)cc3Cl)cc2)n1C(=S)Nc1ccc(Cl)cc1 | 19.2 µM (inactive) | 19.6 µM (inactive) | 34.7 µM (inactive) | 21.8 µM (inactive) | 22.5 µM (inactive) | 18.1 µM (inactive) | 28.3 µM (inactive) | 20.2 µM (inactive) | 20 µM (inactive) | 18.6 µM (inactive) | 17.6 µM (inactive) | 21.5 µM (inactive) | 19.9 µM (inactive) | 18.4 µM (inactive) | 17.7 µM (inactive) | 18.8 µM (inactive) | 18.8 µM (inactive) | 20.9 µM (inactive) | 18.3 µM (inactive) | – |
| CCOC(=O)CC(=O)C(=O)NN=C1NCCN1 | > 100 µM (inactive) | > 100 µM (inactive) | > 100 µM (inactive) | > 100 µM (inactive) | > 100 µM (inactive) | > 100 µM (inactive) | > 100 µM (inactive) | > 100 µM (inactive) | > 100 µM (inactive) | > 100 µM (inactive) | > 100 µM (inactive) | > 100 µM (inactive) | > 100 µM (inactive) | > 100 µM (inactive) | > 100 µM (inactive) | > 100 µM (inactive) | > 100 µM (inactive) | > 100 µM (inactive) | > 100 µM (inactive) | – |
| CC1(C)C(CBr)=[N+]([O-])C(C)(C)N1O | 5.71 µM (inactive) | 2.64 µM (inactive) | 0.604 µM (active) | > 5.6 µM (inactive) | 2.12 µM (inactive) | 2.27 µM (inactive) | > 6.31 µM (inactive) | 2.37 µM (inactive) | 4.91 µM (inactive) | 4.03 µM (inactive) | 1.44 µM (inactive) | 3.32 µM (inactive) | > 10 µM (inactive) | > 9.29 µM (inactive) | 4.16 µM (inactive) | 4.04 µM (inactive) | 3.17 µM (inactive) | 2.25 µM (inactive) | 5.5 µM (inactive) | – |
| C[C@@H](CC(O)C(O)C(C)(C)O)C1CCC23CC12CCC1[C@@]2(C)CCC(=O)C(C)(C)C2CC(OC2OC(CO)C(O)C(O)C2O)[C@]13C (some centres not stated) | > 10 µM (inactive) | > 10 µM (inactive) | > 10 µM (inactive) | > 10 µM (inactive) | > 10 µM (inactive) | > 10 µM (inactive) | > 10 µM (inactive) | > 10 µM (inactive) | > 10 µM (inactive) | > 10 µM (inactive) | > 10 µM (inactive) | > 10 µM (inactive) | > 10 µM (inactive) | > 10 µM (inactive) | > 10 µM (inactive) | > 10 µM (inactive) | > 10 µM (inactive) | > 10 µM (inactive) | > 10 µM (inactive) | – |
